Marks after values point to notes of the source that are not given here.
What was measured:
[1] = biological target: T1, HIV-1 RT (Human immunodeficiency virus type 1 group M subtype B, UniProt P03366); assay: HIV-1 RT inhibition assay (Roche RT kit, colorimetric ELISA); assay type: biochemical; settings: for inhibition at 1 µM: read-out: Inhibitory activities (%) against HIV-1 RT
T1 construct: The reaction mixture consisted of template/primer complex, 2′-deoxy-nucleotide-5′-triphosphates (dNTPs), and RT enzyme in lysis buffer; purchased Roche Applied Science, Mannheim, Germany
From the text: The inhibition assay of HIV-1 RT was accomplished using the template/primer hybrid poly(A) × oligo(dT)15, digoxigenin (DIG)- and biotin-labeled nucleotides, an antibody to DIG that was conjugated to peroxidase (anti-DIG-POD), and the peroxidase substrate ABTS. The quantities of DIG- and biotin-labeled dUTP incorporated into DNA represent t HIV-1 RT activity. The HIV-RT inhibition assay was implemented using an RT assay kit (Roche Applied Science, Mannheim, Germany), and the procedures for assaying RT inhibition were performed as described in the kit protocol. […] The reaction mixture consisted of template/primer complex, 2′-deoxy-nucleotide-5′-triphosphates (dNTPs), and RT enzyme in lysis buffer with or without an inhibitor. […] The biotin-labeled dNTPs that were incorporated in the template bound to streptavidin because of the presence of RT. Unbound dNTPs were washed using a wash buffer, and anti-DIG-POD was added to the MTP. The DIG-labeled dNTPs incorporated in the template bound to the anti-DIG-POD antibody. Unbound anti-DIG-POD was also washed elaborately five times using a wash buffer. Finally, the peroxide substrate (ABST) was added to the MTP. A colored reaction product emerged during the cleavage of the substrate catalyzed by […]. The absorbance of the sample was measured at the optical density (OD) at 490 nm using the MTP (enzyme-linked immunosorbent assay [ELISA]) reader. The percentage inhibitory activities of the RT inhibitors were calculated by comparing with that of the sample without an inhibitor. The resulting color intensity was directly proportional to the RT activity. Percentage inhibitory values were calculated using the following formula: Inhibition (%) = [1–(OD value with RT and inhibitor−OD value without RT and inhibitors)/(OD value without inhibitors with RT−OD value without RT and inhibitors)] × 100.

[2] = tested on: A549 (lung carcinoma); assay: In vitro cytotoxicity (MTT); settings: for IC50: Homo sapiens, A549, 48 h, read-out: IC50 A549
Procedure: (§1) Background control wells contained the same volume as the complete culture medium. […] Samples at various concentrations were added to the microplate and incubated for another 48 h. Cell viability was determined by 3(4,5-dimethylthiazol-2-yl)-2-5-diphenyl tetrazolium bromide (MTT) assay (Sig-ma-Aldrich). The reagent was dissolved in phosphate-buffered saline at 5 mg/mL and filtered to sterilize and remove the small amount of insoluble residue present in some batches of MTT. […] Subsequently, dimethyl sulfoxide (100 µL; Merck, Germany) was added to dissolve the resulting formazan by sonication. The plates were read on a microplate reader (Molecular Devices, CA, USA) using a test wavelength of 550 nm and a reference wavelength of 650 nm. XTT assay for suspension cells was used for MOLT-3 cells.

[3] = tested on: HL-60 (promyeloblast); assay: In vitro cytotoxicity (MTT); settings: for IC50: Homo sapiens, HL-60, 48 h, read-out: IC50 HL-60
Procedure: as §1

[4] = tested on: HeLA (cervical carcinoma); assay: In vitro cytotoxicity (MTT); settings: for IC50: Homo sapiens, HeLa, read-out: IC50 HeLA
Procedure: as §1

[5] = tested on: HepG2 (hepatocarcinoma); assay: In vitro cytotoxicity (MTT); settings: for IC50: Homo sapiens, HepG2, 48 h, read-out: IC50 HepG2
Procedure: as §1

[6] = tested on: HuCCA-1 (cholangiocarcinoma); assay: In vitro cytotoxicity (MTT); settings: for IC50: Homo sapiens, HuCC-A1, 48 h, read-out: IC50 HuCCA-1
Procedure: as §1

[7] = tested on: MDA-MB-231 (hormone-independent breast cancer); assay: In vitro cytotoxicity (MTT); settings: for IC50: Homo sapiens, MDA-MB-231, 48 h, read-out: IC50 MDA-MB-231
Procedure: as §1

[8] = tested on: S102 (Thai liver cancer); assay: In vitro cytotoxicity (MTT)
Procedure: as §1

[9] = tested on: T47-D (hormone-dependent breast cancer); assay: In vitro cytotoxicity (MTT); settings: for IC50: Homo sapiens, T47D, read-out: IC50 T47-D
Procedure: as §1

[10] = tested on: MOLT-3 (acute lymphoblastic leukemia); assay: In vitro cytotoxicity (XTT); settings: for IC50: Homo sapiens, MOLT-3, 48 h, read-out: IC50 MOLT-3
Procedure: as §1

[11] = tested on: MRC-5 (normal embryonic lung cell); assay: In vitro cytotoxicity (MTT), normal cell line; settings: for IC50: Homo sapiens, MRC5, 48 h, read-out: IC50 MRC-5
Procedure: as §1

[12] = tested on: H69AR (lung cancer, multidrug resistant); assay: In vitro cytotoxicity (MTT); assay type: cell-based, human
[13] = at 50 µg/mL, inactive (IC50 ≥ 50 µg/mL)
[14] = normal cell line, at 50 µg/mL, inactive (IC50 ≥ 50 µg/mL)

Row | SMILES | inhibition at 1 µM [1] [%] | IC50 [2] [µM] | %C percentage cytotoxicity HL-60 [3, 13] | %C percentage cytotoxicity HeLA [4, 13] | IC50 [5] [µM] | IC50 [6] [µM] | IC50 [7] [µM] | %C percentage cytotoxicity S102 [8, 13] | IC50 ([9]; 48 h) [µM] | %C percentage cytotoxicity MOLT-3 [10, 13] | %C percentage cytotoxicity MRC-5 [11, 14] | %C percentage cytotoxicity H69AR ([12]; human, 48 h, 50 µg/mL) | melting point [°C] | IC50 ([4]; 48 h) [µM] | IC50 [10] [µM] | %C percentage cytotoxicity A549 [2, 13] | %C percentage cytotoxicity HepG2 [5, 13] | %C percentage cytotoxicity HuCCA-1 [6, 13] | %C percentage cytotoxicity MDA-MB-231 [7, 13] | %C percentage cytotoxicity T47-D [9, 13] | further results
1 | Cc1cc(C#N)cc(C)c1Oc1cc(Oc2c(C)cc(C#N)cc2C)c2ccccc2n1 [Compound 4d, 2,4-di-(2′,6′-Dimethyl-4′-cyanophenoxy)-quinoline] | 40.3 ± 3.3 | 55.5 ± 5.7 | %C = 23.0 ^c | %C = 40.0 ^c | 92.2 ± 6.8 | 83.5 ± 11.1 | 92.5 ± 5 | %C = 31.5 ^c | 55.2 ± 1.5 | %C = 13.0 ^c | %C = 26.9 ^c | %C = 38.0 ^c | 201.8 to 202.4 | – | – | – | – | – | – | – | –
2 | O=Cc1ccc(Oc2cc(-c3cc(Oc4ccc(C=O)cc4)c4ccccc4n3)nc3ccccc23)cc1 [Compound 7a, 4,4′-di-(4′-formylphenoxy)-2,2′-biquinoline] | 22.9 ± 1.2 | 69.5 ± 3.3 | %C = 25.0 ^c | – | 69.8 ± 11.8 | 88.2 ± 4.4 | 74.1 ± 5.3 | %C = 17.6 ^c | 96.1 ± 3.3 | – | %C = 33.9 ^c | %C = 20.0 ^c | 288.7 to 289.3 | 88 ± 4.3 | 74.2 ± 6.3 | – | – | – | – | – | –
3 | N#Cc1ccc(Oc2cc(Nc3ccc(C#N)cn3)nc3ccccc23)cc1 [Compound 6c, 4-(4′-cyanophenoxy)-2-(5″-cyanopyridin-2″ylamino)quinoline] | 27.6 ± 2.1 | 14 ± 2.2 | %C = 9.0 ^c | – | 101.7 ± 0.7 | 22.9 ± 0.9 | 66.6 ± 3 | %C = 44.8 ^c | 47.1 ± 3.3 | – | – | – | 225.7 to 225.9 | 67.7 ± 0.6 | 14.1 ± 0.4 | – | – | – | – | – | IC50 [11]: 69.2 ± 12.4 µM; IC50 ([12]; Homo sapiens, H69AR, 48 h, mean ± standard error): 66.2 ± 2.4 µM
4 | Cc1cc(C#N)cc(C)c1Oc1cc(Nc2ccc(C#N)cn2)nc2ccccc12 [Compound 6d, 4-(2′,6′-Dimethyl-4′-cyanophenoxy)-2-(5’’-cyanopyridin-2’’ylamino)quinoline] | 45.1 ± 1.5 | – | %C = 13.0 ^c | %C = 0.0 ^c | – | – | – | %C = 0.0 ^c | – | %C = 27.0 ^c | %C = 0.0 ^c | %C = 0.0 ^c | 229.4 to 230.3 | – | – | %C = 8.0 ^c | %C = 0.0 ^c | %C = 0.0 ^c | %C = 8.3 ^c | %C = 1.0 ^c | IC50 [1]: 1.22 µM; cytotoxicity toward normal embryonic lung (MRC-5) cells, in words [11]: no cytotoxicity
5 | N#Cc1ccc(Nc2cc(Oc3ccc(C#N)cc3)nc3ccccc23)cc1 [Compound 8c, 2-(4′-cyanophenoxy)-4-(4″-cyanophenyl)-aminoquinoline] | 28.1 ± 3 | – | %C = 1.0 ^c | %C = 0.0 ^c | – | – | – | %C = 0.0 ^c | – | %C = 2.1 ^c | %C = 17.2 ^c | %C = 21.0 ^c | 187.5 to 188 | – | – | %C = 29.0 ^c | %C = 40.3 ^c | %C = 25.8 ^c | %C = 0.0 ^c | %C = 35.0 ^c | –
6 | O=Cc1ccc(Oc2cc(Oc3ccc(C=O)cc3)c3ccccc3n2)cc1 [Compound 4a, 2,4-di-(4′-formylphenoxy)-quinoline] | 17.3 ± 2.4 | – | – | – | 90.9 ± 2.1 | 48.1 ± 1.7 | – | %C = 0.4 ^c | – | – | – | %C = 0.0 ^c | 164.9 to 165.5 | 104 ± 7.9 | 25.1 ± 2.6 | %C = 40.0 ^c | – | – | %C = 43.3 ^c | %C = 34.0 ^c | IC50 [3]: 92.4 ± 3.1 µM; IC50 [11]: 84.3 ± 9.6 µM
7 | Cc1cc(C#N)cc(C)c1Oc1cc(Nc2ccc(C#N)cc2)c2ccccc2n1 [Compound 8d, 2-(2′,6′-Dimethyl-4′-cyanophenoxy)-4-(4″-cyanophenyl)-aminoquinoline] | 34.5 ± 2.3 | – | – | – | – | – | – | %C = 0.0 ^c | – | – | %C = 15.5 ^c | %C = 0.0 ^c | 201.3 to 202 | 104 ± 4.7 | 67.4 ± 3.1 | %C = 29.1 ^c | %C = 32.0 ^c | %C = 18.4 ^c | %C = 32.4 ^c | %C = 31.0 ^c | IC50 [3]: 56.6 ± 4.7 µM
8 | Cc1cc(/C=C/C#N)cc(C)c1Oc1cc(Nc2ccc(C#N)cc2)nc2ccccc12 [Compound 9b-trans, 4-(4′-(2″-(E, Z)-cyanovinyl)-2′,6′-dimethyl-phenoxy)-2-(4″-cyanophenyl)-aminoquinoline] | 35.9 ± 3.1 | – | %C = 17.0 ^c | %C = 38.0 ^c | – | – | – | %C = 0.0 ^c | – | %C = 19.0 ^c | %C = 28.4 ^c | %C = 14.0 ^c | – | – | – | %C = 8.0 ^c | %C = 42.9 ^c | %C = 8.0 ^c | %C = 24.9 ^c | %C = 0.0 ^c | –
9 | Cc1ccnc2c1NC(=O)c1cccnc1N2C1CC1 [NVP, nevirapine, reference compound] | 53.4 ± 2.7 | – | – | – | – | – | – | – | – | – | – | – | – | – | – | – | – | – | – | – | %C percentage cytotoxicity A549 ([2]; human, 48 h, 50 µg/mL): %C = 18.0 ^c; %C percentage cytotoxicity HL-60 ([3]; human, 48 h, 50 µg/mL): %C = 3.0 ^c; %C percentage cytotoxicity HeLA ([4]; human, 48 h, 50 µg/mL): %C = 34.0 ^c; %C percentage cytotoxicity HepG2 ([5]; human, 48 h, 50 µg/mL): %C = 15.4 ^c; %C percentage cytotoxicity HuCCA-1 ([6]; human, 48 h, 50 µg/mL): %C = 11.0 ^c; %C percentage cytotoxicity MDA-MB-231 ([7]; human, 48 h, 50 µg/mL): %C = 8.9 ^c; %C percentage cytotoxicity S102 ([8]; human, 48 h, 50 µg/mL): %C = 3.0 ^c; %C percentage cytotoxicity T47-D ([9]; human, 48 h, 50 µg/mL): %C = 14.0 ^c; %C percentage cytotoxicity MOLT-3 ([10]; human, 48 h, 50 µg/mL): %C = 29.0 ^c; %C percentage cytotoxicity MRC-5 ([11]; human, 48 h, 50 µg/mL): %C = 1.0 ^c; %C percentage cytotoxicity H69AR [12, 13]: %C = 8.0 ^c
10 | Cc1cc(/C=C\C#N)cc(C)c1Oc1cc(Nc2ccc(C#N)cc2)nc2ccccc12 [Compound 9b-cis, 4-(4′-(2″-(E, Z)-cyanovinyl)-2′,6′-dimethyl-phenoxy)-2-(4″-cyanophenyl)-aminoquinoline] | 32.5 ± 2.8 | – | %C = 42.0 ^c | – | – | – | – | %C = 0.0 ^c | – | – | %C = 0.0 ^c | %C = 0.0 ^c | – | 97.2 ± 5.1 | 52.8 ± 2.1 | %C = 1.0 ^c | %C = 9.8 ^c | %C = 10.0 | %C = 10.0 ^c | %C = 5.0 ^c | –

Source: article PMC8781960, “Structural Basis of 2-Phenylamino-4-phenoxyquinoline Derivatives as Potent HIV-1 Non-Nucleoside Reverse Transcriptase Inhibitors” (Molecules, 2022)
